Legend:
Format in all cases: in vivo, Drosophila melanogaster
[1] = test system: FS (dFMR1-3+frame shifted rescue fragment) flies; assay: Naive courtship behavior (courtship index toward virgin female), FS flies; details: for naive courtship: MPEP 20 μg/ml, LY341495 400 nM in food
Excerpt: (§1) Learning and memory (cognitive abilities) can be examined in Drosophila by utilizing several available learning and memory paradigms. The most popular is a classical conditioning paradigm in which the flies learn to associate electric shocks with olfactory cues (Dudia et al, 1976; Davis, 1993; Tully, 1994). An alternative paradigm to study learning and memory in Drosophila is called conditioned courtship, wherein a male fly learns to modify his courtship behavior after experience with an unreceptive female; it is a multi-sensory paradigm involving associations from more then one sensory input (Siegel and Hall, 1979; for review see Hall, 1994). It is a more complex associative learning paradigm and was utilized to assay learning and memory in this article to elucidate the role of dFMR1 in learning and memory (Tompkins et al, 1980; Tompkins et al, 1982; Tompkins et al, 1983; Tompkins et al, 1984; Ackerman and Siegel, 1986). Courting male flies perform a characteristic sequence of behaviors: orienting toward and following the female, tapping her with his forelegs, vibrating one or both wings, licking her genitalia, and attempting copulation (Sturtevant, 1915; Bastock and Manning, 1955; Bastock, 1956). These behaviors are repeated with some variation until successful copulation occurs. Virgin females will generally respond by mating; however, recently mated females will be unreceptive and will not allow copulation to occur (Spieth, 1974), they display different behaviors (Bastock and Manning, 1955; Connolly and Cook, 1973) and have an altered, although somewhat overlapping, pheromonal profile (Cobb and Ferveur, 1996). The naive male will find a previously mated female to have a pheromonal repertoire that is less provocative then that of a virgin female target. A naive male paired with a mated female will initially court her, but his courtship activity soon decreases; after 1 hour of experience with the mated female, his courtship when subsequently paired with a virgin female remains depressed for 2-3 hours (Siegel and Hall, 1979). This effect is not a general suppression of all courtship activity since a male's tendency to court an immature male is not suppressed (Gailey et al, 1984). […] These behaviors are quantified as a courtship index (CI) which is defined as the percentage of time a male fly spends performing any of the six courtship steps toward a target female in a ten minute test period. A decrease in CI after training with a previously mated female is indicative of behavioral plasticity in the form of learning or memory.
Since we use female targets that are not etherized (therefore they are freely moving), and the w118 and dfmr1-3 flies may have slightly impaired visual acuity due to lack of eye pigmentation, and since visual inputs affect courtship behavior, all subsequent experiments were done utilizing only the genotypes Rescue: dfmr1-3+wild type rescue fragment, and FS: dfmr1-3+frame shifted rescue fragment. Both of these genotypes have more pigmentation and similar levels of eye pigmentation to each other. For FIGS. 4 and 5, a high concentration of MPEP (1,000 μg/ml) was used. For the remainder of the experiments the food was either control (CT) or exactly the same control food containing the appropriate concentration of MPEP (M). The position of the CT and the M are indicative of the point at which the group was on the particular food. The first letter indicates the food type that the larvae grew up on, and the second letter denotes the food type that the adult flies were placed on within four hours of eclosion, […] fresh food.
Naive males were placed in the training chamber for one hour with no female, and then placed with a virgin target female for a ten-minute interval. The naive courtship behavior was reduced by high MPEP concentration in Rescue (p<0.0001) and FS (p<0.0005) lines, and it was depressed to similar levels by high MPEP treatment in the Rescue and FS groups (FIG. 2A). […]

[2] = test system: Rescue (dFMR1-3+wild type rescue fragment) flies; assay: Naive courtship behavior (courtship index toward virgin female), Rescue flies; details: for naive courtship: MPEP 20 μg/ml, LY341495 400 nM in food
Excerpt: as §1
Since we use female targets that are not etherized (therefore they are freely moving), and the w118 and dfmr1-3 flies may have slightly impaired visual acuity due to lack of eye pigmentation, and since visual inputs affect courtship behavior, all subsequent experiments were done utilizing only the genotypes Rescue: dfmr1-3+wild type rescue fragment, and FS: dfmr1-3+frame shifted rescue fragment. Both of these genotypes have more pigmentation and similar levels of eye pigmentation to each other. For FIGS. 4 and 5, a high concentration of MPEP (1,000 μg/ml) was used. For the remainder of the experiments the food was either control (CT) or exactly the same control food containing the appropriate concentration of MPEP (M). The position of the CT and the M are indicative of the point at which the group was on the particular food. The first letter indicates the food type that the larvae grew up on, and the second letter denotes the food type that the adult flies were placed on within four hours of eclosion, and for the four following days, until the day before testing when they were placed on fresh food.
In order to determine if MPEP can get into the Drosophila central nervous system (CNS) through feeding behavior, we mixed MPEP into the food at a concentration of 1,000 μg/ml ([…]). Males were raised on CT food and then placed on either CT or M food. […]

[3] = test system: FS flies lacking dfmr1 activity; assay: Short-term memory (60 mins) with mated female targets, FS flies; details: for short-term memory, mated female target: 86 μM MPEP, 400 nM LY341495, 573 μM MPPG, 348 μM MTPG; for memory at 60 minutes post training, mated female target: 5 day old, 8.6 mM MPEP, 400 nM LY341495
Method: Effects of drug treatment on short-term memory (60 mins) in flies lacking dfmr1 activity with mated female targets. Short-term (60 min.) memory was measured in Rescue and FS flies that were either fed control food or underwent various drug treatments as described below. Short-term memory was measured by placing a trained male in a holding chamber for 60 minutes (after being trained for one hour with a previously mated female), then subsequently placing him in a testing chamber with a mated female target for a ten-minute courtship interval (C.I.). This C.I. was compared to the C.I. obtained for naïve courtship of a previously mated female, i.e., C.I. during the first 10 minutes of the training session with a previously mated female. Additionally, for reference the C.I. during the last 10 minutes of the training period was also determined. Numbers of flies are indicated above each bar for all groups. The levels of significance are indicated as follows; *=p<0.05; **=p<0.005; ***=p<0.0001.
Restoration of short-term memory with mGluR antagonists. To establish that the failure to observe memory was not due to a problem with recognizing or processing the appropriate cues from the virgin female target, we used a modified version of the conditioned courtship paradigm where the male is paired with a mated female target subsequent to training (Kane et al., 1997; Joiner and Griffith, 1997; Joiner and Griffith, 1999; Kamashev et al., 1999). Again, with pharmacologic treatment it is necessary to utilize more then one compound to confirm the specificity of the target, so in this case we used four mGluR antagonists. […] It is also important to note that the robust deficit in synaptic plasticity in FS flies, with regard to memory, is a critical extension of the previous models of Fragile X syndrome in model organisms, since this is one of the most prominent aspects of the human disorder. Furthermore, we have shown that antagonism of the mGluRs can restore synaptic plasticity in the Drosophila model of Fragile X syndrome.

[4] = 5 day old, MPEP 200 μg/ml (86.6 μM) in development, with or without adulthood (M-M, M-CT)
[5] = 5 day old, MPEP 1,000 μg/ml (433.0 μM) in food in adulthood (CT-M)

Cc1cccc(C#Cc2ccccc2)n1 [MPEP, 2-methyl-6-(phenylethynyl)pyridine]
naive courtship activity ([1]; 20-day-old, MPEP (86.6 μM) in adulthood only (CT-M)): significant increase in courtship activity | naive courtship activity ([1]; 20-day-old, MPEP (86.6 μM) in development and adulthood (M-M)): significant increase in courtship activity | naive courtship activity ([1]; 20-day-old, MPEP (86.6 μM) in development only (M-CT)): did not demonstrate an increase in naive courtship activity | naive courtship ([1]; 5 day old): significantly increased naive courtship | naive courtship activity [1, 4]: courtship levels similar to CT-CT Rescue flies | naive courtship activity ([1]; 5 day old, MPEP 200 μg/ml (86.6 μM) in food in adulthood only (CT-M), p<0.005): significant increase in courtship activity | naive courtship behavior [1, 5]: reduced | naive courtship ([2]; 5 day old): suppressed naive courtship | naive courtship activity ([2]; 5 day old, MPEP 200 μg/ml (86.6 μM) in adulthood only (CT-M), p<0.0001): depressed relative to CT-CT Rescue flies | naive courtship activity [2, 4]: courted as vigorously as CT-CT Rescues flies | naive courtship behavior [2, 5]: reduced | short-term memory, mated female target [3]: demonstrated restoration of short-term memory | memory at 60 minutes post training, mated female target [3]: demonstrate memory at 60 minutes post training

CC(N)(C(=O)O)c1ccc(-c2nnn[nH]2)cc1 (racemic) [MTPG, (RS)-α-methyl-4-tetrazolylphenylglycine]
naive courtship activity ([1]; 5 day old adults, 573 mM MPPG (p<0.0001) or 348 μM MTPG (p<0.005)): significant increase in courtship activity | naive courtship activity ([2]; 5 day old adults, 573 mM MPPG or 348 μM MTPG, p<0.0001 for both): significant decrease in courtship activity | short-term memory, mated female target [3]: demonstrated restoration of short-term memory | memory at 60 minutes post training, mated female target [3]: demonstrate memory at 60 minutes post training

N[C@](CC1c2ccccc2Oc2ccccc21)(C(=O)O)[C@H]1C[C@@H]1C(=O)O [LY341495, (2S)-2-amino-2-[(1S,2S)-2-carboxycycloprop-1-yl]-3-(xanth-9-yl) propionic acid]
naive courtship ([1]; 5 day old): significantly increased naive courtship | naive courtship ([2]; 5 day old): suppressed naive courtship | short-term memory, mated female target [3]: demonstrated restoration of short-term memory | memory at 60 minutes post training, mated female target [3]: demonstrate memory at 60 minutes post training

Source: patent US20080187492A1, “Drosophila Models For Diseases Affecting Learning and Memory” (priority 2004, published 2008)
